# Experimental data taken from patent US10927086B2, “Substituted sulfoximine compounds as indoleamine 2,3-dioxygenase (IDO) inhibitors” (Merck Sharp & Dohme Corp., priority 2017, dated 2021).
# Columns and labels:
# IDO1 [1] = biological target: T1, IDO1 (Homo sapiens (Human), UniProt P14902); assay: IDO1 Enzyme Assay; type: biochemical; conditions: HIS-tagged recombinant IDO1, fluorescence readout
# Procedure: (§1) Compounds to be tested were serially diluted in ten 3-fold steps in DMSO starting from 10 mM DMSO stocks. Compound dilutions or DMSO alone were then dispensed from the dilution plate into a Greiner black 384-well assay plate (catalog #781086) using an Echo 555 acoustic liquid handler (Labcyte).
# HIS-tagged IDO1 protein was recombinantly expressed in Escherichia coli using ZYP5052 autoinduction media supplemented with 500 μM delta aminolevulinic acid for 48 h at 16° C. IDO1 protein was purified using Ni^2+-affinity resin and size exclusion chromatography. Purified protein was then diluted in assay buffer (50 mM Tris pH 7.0, 1% glycerol, 20 μM methylene blue, 0.05% Tween-20, 20 mM sodium ascorbate, 100 units/mL catalase to obtain a final IDO1 concentration of 40 nM. IDO1 solution […] or buffer alone ([…]) were dispensed to wells of the assay plate using a BioRAPTR liquid dispenser (Beckman Coulter). Assay plates containing compound and IDO1 enzyme were incubated at RT for 30 min. Afterwards, 10 μL of 400 μM tryptophan in assay buffer were added to each well of the assay plate using a BioRAPTR liquid dispenser. Plates were incubated at RT for 60 min and reactions were quenched by addition of 10 μL of 0.5 M methyl isonipecotate in dimethyl sulfoxide. Plates were sealed and incubated at 37° C. for 4 h or 50° C. for 2 h. The plates are allowed to cool and then centrifuged for 1 min at 1000×g. The resulting fluoresence was measured in an Envision plate reader (Perkin Elmer) with a 400/25 nm excitation filter and an 510/20 nm emission filter.
# Potencies were calculated by linear least squares fit to the four parameter logistic IC50 equation.
# Target sequence in this assay (P14902 whole entry, species assumed): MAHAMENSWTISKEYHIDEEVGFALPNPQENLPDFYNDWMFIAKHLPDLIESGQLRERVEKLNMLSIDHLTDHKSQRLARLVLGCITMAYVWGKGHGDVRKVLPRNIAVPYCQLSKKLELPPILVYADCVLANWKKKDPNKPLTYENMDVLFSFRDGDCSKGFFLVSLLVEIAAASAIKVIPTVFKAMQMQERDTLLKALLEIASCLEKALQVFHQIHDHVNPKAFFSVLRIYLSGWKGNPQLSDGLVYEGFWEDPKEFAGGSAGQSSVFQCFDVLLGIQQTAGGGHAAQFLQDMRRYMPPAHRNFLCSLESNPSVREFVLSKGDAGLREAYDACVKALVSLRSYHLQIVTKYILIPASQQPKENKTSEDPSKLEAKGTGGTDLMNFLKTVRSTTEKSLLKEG
# IDO1 [2] = biological target: T1, IDO1; assay: IDO1 Cellular Assay in Hela Cells Stimulated with IFNγ; type: cell-based; conditions: about 48 hours, read-out: IDO1 HELA Cell Assay, IC50
# Procedure: Hela cells were cultured in complete Hela culture medium (90% EMEM, 10% heat-inactivated fetal bovine serum) and expanded to about 1×10^9 cells. The cells were then collected and frozen down at 10×10^6 cells/vial in 1 mL frozen medium (90% complete Hela culture medium, 10% DMSO)
# as §1, with “stocks in Echo low volume plate(s).” for “stocks.”, “plate(s)” for “plate”, “into” for “into a”, “#781086, 50 nL/well)” for “#781086)”, “550” for “555”
# Target sequence in this assay (P14902 whole entry): as the sequence (P14902 whole entry, species assumed) above
# Frozen Hela cells were thawed and transferred into Hela assay medium (99% complete Hela culture medium, 1% Pen/Strep) with 20 mL medium/vial of cells. The cells were spun down at 250 g in a table top centrifuge for 5 min and suspended in same volume of Hela assay medium. The cells were then counted and adjusted to a density of 2×10^5 cells/ml in Hela assay medium. Sterile L-tryptophan were added to the cells with final concentration of 300 uM L-tryptophan. A small aliquot (2 mL/plate) of Hela cells were set aside and were not treated with IFNγ, to serve as the Max-E control. The rest of Hela cells were added with sterile IFNγ (Cat #285-IF, R & D systems) with a final concentration of 100 ng/mL.
# Hela cells with and without IFNγ were dispensed to the respective wells of 384-well assay plates containing the compounds. The plates were incubated for about 48 hours at a 37° C., 5% CO2 incubator. Afterwards, 12 μL of 0.5 M methyl isonipecotate in dimethyl sulfoxide were added into each well and the plates were sealed and incubated at 37° C. without CO2 overnight. The plates were centrifuged for 1 min at 200×g. The resulting fluorescence was measured in a Spectramax plate reader (Molecular Devices) with a 400 nm excitation filter and a 510 nm emission filter.
# The fluorescence intensity of each well was corrected for the background observed in wells with non-IFNγ-treated cells and was expressed as a fraction of the intensity observed in wells of IFNγ-treated cells and DMSO only. Potencies were calculated by linear least squares fit to the four parameter logistic IC50 equation.
SMILES,IC50 (IDO1 [1]) [µM],IC50 (IDO1 [2]) [µM]
"CS(=N)(=O)N[C@H]1C[C@@H](Oc2nonc2/C(=N\O)N[C@@H]2Cc3ccc(F)cc32)C1 (single isomer, unassigned) [Example 61]",0.0816,0.128
"CS(=N)(=O)N[C@H]1C[C@@H](Oc2nonc2/C(=N\O)N[C@@H]2Cc3ccc(F)cc32)C1 (single isomer, unassigned) [Example 62]",0.147,0.183
"CS(=N)(=O)N1CCO[C@@H](CNc2nonc2/C(=N\O)N[C@@H]2Cc3ccc(F)cc32)C1 (single isomer, unassigned) [Example 64]",0.083,0.2
"CN=S(C)(=O)NCCNc1nonc1/C(=N\O)N[C@H]1Cc2ccc(F)cc21 (single isomer, unassigned) [Example 66]",0.0808,0.0596
"CN=S(C)(=O)NCCNc1nonc1/C(=N\O)N[C@H]1Cc2ccc(F)cc21 (single isomer, unassigned) [Example 67]",0.0637,0.14
"N=S(=O)(CCNc1nonc1/C(=N\O)N[C@@H]1Cc2ccc(F)cc21)C1CC1 (single isomer, unassigned) [Example 68]",0.0591,0.0446
"N=S(=O)(CCNc1nonc1/C(=N\O)N[C@@H]1Cc2ccc(F)cc21)C1CC1 (single isomer, unassigned) [Example 69]",0.0646,0.0485
"CS(=N)(=O)N1CC(CNc2nonc2/C(=N\O)N[C@@H]2Cc3ccc(F)cc32)C1 (single isomer, unassigned) [Example 70]",0.0797,0.0416
"CS(=N)(=O)N1CC(CNc2nonc2/C(=N\O)N[C@@H]2Cc3ccc(F)cc32)C1 (single isomer, unassigned) [Example 71]",0.08,0.0723
"C[S@](=N)(=O)C1CC(Nc2nonc2/C(=N\O)N[C@@H]2Cc3ccc(F)cc32)C1 (single isomer, unassigned) [Example 72]",0.0495,0.0635
"C[S@](=N)(=O)C1CC(Nc2nonc2/C(=N\O)N[C@@H]2Cc3ccc(F)cc32)C1 (single isomer, unassigned) [Example 73]",0.0639,0.0854
"CS(=N)(=O)C1CC2(CC(Nc3nonc3/C(=N\O)N[C@@H]3Cc4ccc(F)cc43)C2)C1 (single isomer, unassigned) [Example 74]",0.0737,0.0322
"CS(=N)(=O)C1CC2(CC(Nc3nonc3/C(=N\O)N[C@@H]3Cc4ccc(F)cc43)C2)C1 (single isomer, unassigned) [Example 75]",0.0904,0.0403
"CS(=N)(=O)N1CC2(CC(Nc3nonc3/C(=N\O)N[C@@H]3Cc4ccc(F)cc43)C2)C1 (single isomer, unassigned) [Example 76]",0.0399,0.0176
"CS(=N)(=O)N1CC2(CC(Nc3nonc3/C(=N\O)N[C@@H]3Cc4ccc(F)cc43)C2)C1 (single isomer, unassigned) [Example 77]",0.0341,0.0227
"CS(=N)(=O)CCC(O)CNc1nonc1/C(=N\O)N[C@@H]1Cc2ccc(F)cc21 (single isomer, unassigned) [Example 78]",0.0578,0.0748
"CS(=N)(=O)CCC(O)CNc1nonc1/C(=N\O)N[C@@H]1Cc2ccc(F)cc21 (single isomer, unassigned) [Example 79]",0.0776,0.091
"CS(=N)(=O)CCC(O)CNc1nonc1/C(=N\O)N[C@@H]1Cc2ccc(F)cc21 (single isomer, unassigned) [Example 80]",0.0945,0.0685
"CS(=N)(=O)CCC(O)CNc1nonc1/C(=N\O)N[C@@H]1Cc2ccc(F)cc21 (single isomer, unassigned) [Example 81]",0.095,0.0628
"CS(=N)(=O)CC12CC(Nc3nonc3/C(=N\O)N[C@@H]3Cc4ccc(F)cc43)(C1)C2 (single isomer, unassigned) [Example 82]",0.0917,0.082
